The target in this experiment is Factor IXa (Homo sapiens, UniProt P00740). In words: Determination of inhibitory activity against Factor IXa (cleavage of fluorescent peptide CH3SO2-D-CHG-Gly-Arg-AFC). It counts as biochemical. To be noted: low enzyme format, read-out: FIXa Low Enzyme. Here is the method:
Determination of Inhibitory Activity Against Factor IXa
Formation of a clot to stem bleeding at a site of blood vessel injury involves the coordinated activity of a group of plasma proteins that initiate and propagate fibrin formation and subsequently protect fibrin from premature degradation. Factor IX is a key component of the plasma system that forms a fibrin clot at a site of vascular injury. The activity of Factor IXa is measured by monitoring the cleavage of the fluorescent peptide, CH3SO2-D-CHG-Gly-Arg-AFC.AcOH (“CHG” is cyclohexyl-glycine and “AFC” is trifluoro aminomethyl coumarin). Factor IXa cleaves the amide bond between Arg and AFC, thereby releasing the AFC fluorophore. The free AFC can be detected with a fluorescence detector at an excitation wavelength of 405 nm and emission wavelength of 510 nm.

Like-named read-outs stand apart in the source and are kept apart here.

Factor IXa, sequence (P00740 227-461 limits assumed): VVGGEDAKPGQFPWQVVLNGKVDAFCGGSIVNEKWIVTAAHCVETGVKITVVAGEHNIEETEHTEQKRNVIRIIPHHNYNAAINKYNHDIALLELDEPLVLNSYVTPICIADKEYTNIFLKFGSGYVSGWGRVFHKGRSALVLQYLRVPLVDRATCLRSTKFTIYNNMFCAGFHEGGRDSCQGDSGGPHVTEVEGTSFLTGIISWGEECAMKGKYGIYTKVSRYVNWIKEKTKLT
Factor IXa, sequence (P00740 47-191 partner limits assumed): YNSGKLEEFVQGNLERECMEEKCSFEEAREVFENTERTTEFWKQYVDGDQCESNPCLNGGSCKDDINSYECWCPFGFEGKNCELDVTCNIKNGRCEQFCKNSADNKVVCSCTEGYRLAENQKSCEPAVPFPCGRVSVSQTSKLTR

For `Nc1nsc2c1ccc1[nH]c([C@H](O)[C@H]3OCCN(c4cccc(C(O)C(F)(F)F)n4)C3=O)nc(=O)c12` (stereo partly drawn) [Example 25, (2R)-2-((S)-(3-Amino-9-oxo-6,9-dihydroisothiazolo[5,4-f]quinazolin-7-yl)(hydroxy)methyl)-4-(6-(2,2,2-trifluoro-1-hydroxyethyl)pyridin-2-yl)morpholin-3-one], the IC50 (Factor IXa Inhibition table) was 11.8 nM.

`CC(O)(c1cccc(N2CCO[C@H]([C@@H](O)c3nc(=O)c4c(ccc5c(N)nsc54)[nH]3)C2=O)n1)C(F)(F)F` (stereo partly drawn) [Example 26, (2R)-2-((S)-(3-Amino-9-oxo-6,9-dihydroisothiazolo[5,4-f]quinazolin-7-yl)(hydroxy)methyl)-4-(6-(1,1,1-trifluoro-2-hydroxypropan-2-yl)pyridin-2-yl)morpholin-3-one]: the IC50 (Factor IXa Inhibition table) is 19.3 nM.

Turning to `Nc1nccc2cc3[nH]c([C@H](O)[C@H]4OCCN(c5ccn(-c6ccncc6)n5)C4=O)nc(=O)c3cc12` [Example 28, (R)-2-((S)-(6-Amino-4-oxo-1,4-dihydropyrido[3,4-g]quinazolin-2-yl)(hydroxy)methyl)-4-(1-(pyridin-4-yl)-1H-pyrazol-3-yl)morpholin-3-one], the IC50 (table of additional examples) was 27.6 nM.

(Values after patent US9695198B2, “Factor IXa inhibitors” (MERCK SHARP & DOHME CORP., priority 2012, dated 2017).)
